Laboratory results reported in US20200147117A1, “COMBINATION CANCER THERAPY” (BIOSIGHT LTD., priority 2017, published 2020).
pIC50: −log10 of the molar value. Where two headings read alike, the source gives them in different places.

How the values were obtained:
[1] = system: U937 human hematological cancer cells; assay: Proliferation and survival of U937 cells, PI staining / FACS, 72 hours; type: cell-based
Description: U937 human hematological cancer cells were cultured in RPMI supplemented with 10% FCS. […] Azacitidine (AZA) was added to the cell cultures at 5 different concentrations: 0, 100, 250, 1000, 5000 nM. […] All groups were analyzed in triplicates. […] The percentage of inhibition was calculated.

U937 cells = assay: Activity of BST-236 on U937 cells, 48 hr, 10% FCS (Table 3); type: cell-based, human
[2] = system: Molt-4 human leukemia cell line; assay: Molt-4 cell proliferation, MTT assay, 72 hr; type: cell-based
Description: Molt-4 human leukemia cell line was obtained from ATCC. The cells were grown in RPMI medium containing 10% FBS and 1% glutamine Cells were seeded in 96-well plates, 50,000 cells/ml, 0.2 ml per well. Test substances were diluted in PBS and added in final concentrations of 0.1 nM to 10 μM, in a volume of 20 μl. The study was conducted in triplicates. PBS was used as a control. Plates were incubated for 72 hr at 37° C. with 5% CO2. At the end of the treatment period, a MTT assay using the MTT reagent [3-(4,5-dimethylthiazol-2-yl)-2,5-diphenyltetrazolium bromide] was performed. MTT was added to each well at a concentration of 5 mg/ml in a volume of 0.02 ml. Plates were incubated at 37° C. for 3 hours. The plates were centrifuged at 3500 rpm for 5 minutes and the supernatant was aspirated. The pellets which contained MTT crystals were each dissolved in 0.2 ml DMSO. Absorbance was determined using ELISA reader at a wavelength of 570 nm.

Molt-4 cells = assay: Activity of Asp-Cytarabine/BST-236 on Molt-4 cells, 48 hr, 10% FCS (Table 5); type: cell-based, human
U937 leukemia cells = assay: Animal model of leukemia: NSG mice injected IV with U937 cells; type: in vivo, NOD scid gamma (NSG) mice; conditions: for Spleen size / weight compared to the control mice: s.c. daily, FIG. 4
Description: The effect of BST-236 in combination with azacytidine on the survival of U937 leukemia cells in vivo was next examined NOD scid gamma (NSG) mice were irradiated with 200 rad, 24 hours before injection with U937 cells. On Day 0, mice (4-5 animals per group), were injected intravenously (IV) with 7×10^6 U937 cells in a total volume of 200 μL PBS. On Days 16-22 (7 days, first study) or 13-18 (6 days, second study), mice were daily injected subcutaneously (s.c.) with BST-236 (5 mg/mouse; ˜250 mg/kg), azacytidine (designated AZA; 6 mg/kg), or BST-236 (5 mg/mouse; ˜250 mg/kg) and AZA (6 mg/kg). Twenty-four hours after the last injection, mice were sacrificed, and spleen, blood, and bone marrow were analyzed for mouse and human CD45^+ cells using fluorescence-activated cell sorting (FACS).
Given that finding, experiments will be performed using even lower doses of BST-236 to evaluate synergistic activity with, e.g., AZA. It is, for example, expected that 20 mg/kg BST-236 will be efficacious. Accordingly, in a particular embodiment, NSG mice will be dosed with 20 mg/kg BST-236 alone, 6 mg/kg AZA alone, or a combination of 20 mg/kg BST-236 and 6 mg/kg AZA to investigate synergistic activity with this dosing regimen. It is understood that synergistic activity may also be observed at lower doses of AZA in combination with 20 mg/kg BST-236.

[3] = PK analysis from Phase I/II studies after infusion; type: in vivo
Text: Accordingly, synergistic interactions may be observed within […] administration of BST-236.

[4] = BST-236 5 mg/mouse, AZA 6 mg/kg

## NC(CC(=O)Nc1ccn([C@@H]2O[C@H](CO)C(O)C2O)c(=O)n1)C(=O)O (stereo partly shown) [Asp-Cytarabine]
[1]; BST236 250 nM alone
  % inhibition (growth inhibition of U937 cells): 19.1%
U937 cells; 1 nM, 48 hr, 10% FCS
  Activity on U937 cells (count): 16958
U937 cells; 10 nM, 48 hr, 10% FCS
  Activity on U937 cells (count): 16994
U937 cells; 50 nM, 48 hr, 10% FCS
  Activity on U937 cells (count): 15769.67
U937 cells; 100 nM, 48 hr, 10% FCS
  Activity on U937 cells (count): 15228.33333
U937 cells; 250 nM, 48 hr, 10% FCS
  Activity on U937 cells (count): 14819.67
U937 cells; 1000 nM, 48 hr, 10% FCS
  Activity on U937 cells (count): 6185.667
U937 cells; 5000 nM, 48 hr, 10% FCS
  Activity on U937 cells (count): 2116
U937 cells; Homo sapiens, U-937, 1 nM, 48 hr, 10% FCS, read-out: Activity on U937 cells (inhibition relative to 0)
  inhibition at 0.001 µM: -2.27%
U937 cells; Homo sapiens, U-937, 10 nM, 48 hr, 10% FCS, read-out: Activity on U937 cells (inhibition relative to 0)
  inhibition at 0.01 µM: -2.49%
U937 cells; Homo sapiens, U-937, 50 nM, 48 hr, 10% FCS, read-out: Activity on U937 cells (inhibition relative to 0)
  inhibition at 0.05 µM: 4.9%
U937 cells; Homo sapiens, U-937, 100 nM, 48 hr, 10% FCS, read-out: Activity on U937 cells (inhibition relative to 0)
  inhibition at 0.1 µM: 8.16%
U937 cells; Homo sapiens, U-937, 250 nM Asp-Cytarabine administered alone, read-out: inhibition of U937 cells
  inhibition at 0.25 µM: < 20%
U937 cells; Homo sapiens, U-937, 250 nM, 48 hr, 10% FCS, read-out: Activity on U937 cells (inhibition relative to 0)
  inhibition at 0.25 µM: 10.6%
U937 cells; Homo sapiens, U-937, 1000 nM, 48 hr, 10% FCS, read-out: Activity on U937 cells (inhibition relative to 0)
  inhibition at 1 µM: 62.7%
U937 cells; Homo sapiens, U-937, 5000 nM, 48 hr, 10% FCS, read-out: Activity on U937 cells (inhibition relative to 0)
  inhibition at 5 µM: 87.2%
[2]
  pIC50: 7.33
Molt-4 cells; 1 nM, 48 hr, 10% FCS
  Activity on Molt-4 cells (count): 18778.00
Molt-4 cells; 10 nM, 48 hr, 10% FCS
  Activity on Molt-4 cells (count): 17759.00
Molt-4 cells; 50 nM, 48 hr, 10% FCS
  Activity on Molt-4 cells (count): 14258.67
Molt-4 cells; 100 nM, 48 hr, 10% FCS
  Activity on Molt-4 cells (count): 12006.67
Molt-4 cells; 250 nM, 48 hr, 10% FCS
  Activity on Molt-4 cells (count): 9572.00
Molt-4 cells; 1000 nM, 48 hr, 10% FCS
  Activity on Molt-4 cells (count): 3156.33
Molt-4 cells; 5000 nM, 48 hr, 10% FCS
  Activity on Molt-4 cells (count): 2037.33
Molt-4 cells; Homo sapiens, MOLT-4, 1 nM, 48 hr, 10% FCS, read-out: Activity on Molt-4 cells (inhibition relative to 0)
  inhibition at 0.001 µM: 1.88%
Molt-4 cells; Homo sapiens, MOLT-4, 10 nM Asp-Cytarabine, read-out: inhibition of Molt-4 cells
  inhibition at 0.01 µM: < 10%
Molt-4 cells; Homo sapiens, MOLT-4, 10 nM, 48 hr, 10% FCS, read-out: Activity on Molt-4 cells (inhibition relative to 0)
  inhibition at 0.01 µM: 7.21%
Molt-4 cells; Homo sapiens, MOLT-4, 50 nM, 48 hr, 10% FCS, read-out: Activity on Molt-4 cells (inhibition relative to 0)
  inhibition at 0.05 µM: 25.5%
Molt-4 cells; Homo sapiens, MOLT-4, 100 nM, 48 hr, 10% FCS, read-out: Activity on Molt-4 cells (inhibition relative to 0)
  inhibition at 0.1 µM: 37.3%
Molt-4 cells; Homo sapiens, MOLT-4, 250 nM, 48 hr, 10% FCS, read-out: Activity on Molt-4 cells (inhibition relative to 0)
  inhibition at 0.25 µM: 50%
Molt-4 cells; Homo sapiens, MOLT-4, 1000 nM, 48 hr, 10% FCS, read-out: Activity on Molt-4 cells (inhibition relative to 0)
  inhibition at 1 µM: 83.5%
Molt-4 cells; Homo sapiens, MOLT-4, 5000 nM, 48 hr, 10% FCS, read-out: Activity on Molt-4 cells (inhibition relative to 0)
  inhibition at 5 µM: 89.3%
U937 leukemia cells; [4]
  Spleen size / weight compared to the control mice: reduced spleen size
U937 leukemia cells; first study, s.c. daily Days 16-22, sacrifice on Day 23, BST-236 5 mg/mouse, AZA 6 mg/kg
  Animals that survived until the scheduled sacrifice: 4/4
[3]; Phase I/II studies
  Concentration decline following infusion cessation: rapidly declined in an apparent biphasic manner
[3]; at 6-10 hours from the completion of the infusion
  Concentration relative to the peak: ≤ 5 % of the peak

## Nc1ncn([C@@H]2O[C@H](CO)[C@@H](O)[C@H]2O)c(=O)n1 [Azacitidine]
[1]; AZA 100 nM alone
  % inhibition (growth inhibition of U937 cells): 1.68%
[1]; AZA 250 nM alone
  % inhibition (growth inhibition of U937 cells): −3.60%
[1]; AZA 1000 nM alone
  % inhibition (growth inhibition of U937 cells): 0.60%
[1]; AZA 5000 nM alone
  % inhibition (growth inhibition of U937 cells): 4.30%
[2]
  pIC50: 5.68
U937 leukemia cells; [4]
  Spleen size / weight compared to the control mice: reduced spleen size
U937 leukemia cells; first study, AZA 6 mg/kg s.c. daily Days 16-22, sacrifice on Day 23
  Animals that died before the scheduled sacrifice: 1/4
